Test results reported in US11554118B2 (priority 2017, dated 2023).
Like-named read-outs stand apart in the source and are kept apart here.

Legend:
Btk [1] = molecular target: Btk (Mus musculus (Mouse), UniProt P35991); experiment: Btk occupancy in vivo (PCI-33380 labeling of PBMCs or splenocytes); design: species or system BALB/c mice; conditions: Babc/L mice, after 4 hours
Experimental: For analysis of Btk occupancy in Babc/L mice following oral dosing of compounds after 4 hours. Isolating peripheral blood mononuclear cells (PBMCs) with mouse peripheral blood separation kit (Hao Yang Biological Manufacture CO., LTD, Tianjin) were collected from Babc/L mice (1 ml blood from two mice). Spleens were processed to splenocytes followed by 5 min incubation in red blood cell lysing buffer (from mouse peripheral blood separation kit).

BTK [2] = molecular target: BTK (Homo sapiens (Human), UniProt Q06187); experiment: biochemical
Sequence of BTK (Q06187 whole entry, looked up, species assumed): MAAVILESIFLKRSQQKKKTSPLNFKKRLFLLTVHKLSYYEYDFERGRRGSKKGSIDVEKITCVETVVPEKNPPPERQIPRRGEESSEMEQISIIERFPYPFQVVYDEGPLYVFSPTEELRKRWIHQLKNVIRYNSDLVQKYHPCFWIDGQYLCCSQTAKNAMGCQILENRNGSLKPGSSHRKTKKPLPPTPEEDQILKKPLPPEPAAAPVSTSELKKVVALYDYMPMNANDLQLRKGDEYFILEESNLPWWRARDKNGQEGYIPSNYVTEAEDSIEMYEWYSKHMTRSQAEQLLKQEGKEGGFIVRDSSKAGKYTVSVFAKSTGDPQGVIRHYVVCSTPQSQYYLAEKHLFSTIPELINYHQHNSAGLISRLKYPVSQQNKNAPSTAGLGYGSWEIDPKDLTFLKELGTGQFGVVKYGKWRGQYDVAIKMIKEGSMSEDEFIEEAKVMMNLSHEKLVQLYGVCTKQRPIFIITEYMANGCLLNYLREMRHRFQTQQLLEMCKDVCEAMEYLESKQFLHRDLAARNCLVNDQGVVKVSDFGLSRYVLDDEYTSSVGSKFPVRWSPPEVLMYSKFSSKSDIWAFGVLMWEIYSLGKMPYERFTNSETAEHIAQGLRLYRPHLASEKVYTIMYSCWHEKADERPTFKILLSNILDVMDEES
Experimental: Btk kinase activity was determined using a homogenous time resolved fluorescence (HTRF) methodology. Measurements were performed in a reaction volume of 15 μL using 384-well assay plates. Kinase enzyme, inhibitor, ATP and 1 M peptide substrate were incubated in a reaction buffer compose of Hepes 50 mM (pH7.0), NaN3 0.02%, BSA 0.01%, Orthocanadate 0.1 mM. […] For each compound, enzyme activity as measured at various concentrations of compound, Negative control reactions were performed in the absence of inhibitor in two replicates and eight no enzyme controls were used to determine baseline fluorescence levels.

Sequence of Btk (P35991 whole entry, looked up): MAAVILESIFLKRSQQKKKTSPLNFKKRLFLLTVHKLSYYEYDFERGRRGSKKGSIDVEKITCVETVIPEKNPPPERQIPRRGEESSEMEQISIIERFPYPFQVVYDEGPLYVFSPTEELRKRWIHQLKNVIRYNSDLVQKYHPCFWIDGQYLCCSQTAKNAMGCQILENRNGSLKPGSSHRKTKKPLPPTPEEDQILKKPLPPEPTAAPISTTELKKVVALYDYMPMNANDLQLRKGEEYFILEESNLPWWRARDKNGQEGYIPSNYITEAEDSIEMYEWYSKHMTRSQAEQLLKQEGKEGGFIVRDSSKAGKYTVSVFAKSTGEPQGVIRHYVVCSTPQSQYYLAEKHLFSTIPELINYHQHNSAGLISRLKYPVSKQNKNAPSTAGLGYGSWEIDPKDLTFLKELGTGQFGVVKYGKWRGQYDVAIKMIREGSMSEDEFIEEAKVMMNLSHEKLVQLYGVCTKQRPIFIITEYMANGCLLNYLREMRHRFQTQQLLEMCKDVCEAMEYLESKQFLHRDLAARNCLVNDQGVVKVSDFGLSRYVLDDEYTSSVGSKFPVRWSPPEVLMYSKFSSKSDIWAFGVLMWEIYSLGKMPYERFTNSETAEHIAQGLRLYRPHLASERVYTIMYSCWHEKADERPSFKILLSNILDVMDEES

For `C=CC(=O)N1CCC[C@@H](c2nc(-c3ccc(Oc4cccc(OC)c4F)cc3)c3cnccn23)C1` [Compound 1, (R)-1-(3-(1-(4-(2-fluoro-3-methoxyphenoxy)phenyl)imidazo[1,5-a]pyrazin-3-yl)piperidin-1-yl)prop-2-en-1-one], the “Btk occupancy in vivo” value (Btk [1]; 5 mg/kg single oral dose) was “full occupancy”.
`C=CC(=O)N1CCCC[C@H]1c1nc(-c2ccc(Oc3cccc(OC)c3F)cc2)c2c(C)nccn12` [Compound 27, (S)-1-(2-(1-(4-(2-fluoro-3-methoxyphenoxy)phenyl)-8-methylimidazo[1,5-a]pyrazin-3-yl)piperidin-1-yl)prop-2-en-1-one] was tested, and the “Btk occupancy in vivo” value (Btk [1]; 10 mg/kg single oral dose) was “full occupancy”.
In the case of `C=CC(=O)N1CCC[C@H]1c1nc(-c2ccc(Oc3cccc(OC)c3F)cc2)c2cnccn12` [Compound 30, (S)-1-(2-(1-(4-(2-fluoro-3-methoxyphenoxy)phenyl)imidazo[1,5-a]pyrazin-3-yl)pyrrolidin-1-yl)prop-2-en-1-one], the “Btk occupancy in vivo” value (Btk [1]; 5 mg/kg single oral dose) is reported as “full occupancy”.
`CC#CC(=O)N1CC[C@@H](c2nc(-c3ccc(C(=O)Nc4cc(C(F)(F)F)ccn4)cc3)c3cncc(OCC)n23)C1` [Compound 196, (R)-4-(3-(1-(but-2-ynoyl)pyrrolidin-3-yl)-5-ethoxyimidazo[1,5-a]pyrazin-1-yl)-N-(4-(trifluoromethyl)pyridin-2-yl)benzamide] gave an IC50 (BTK [2]) of 100 to 1000 nM.
`C=CC(=O)N1CC[C@@H](c2nc(-c3ccc(C(=O)Nc4cc(C(F)(F)F)ccn4)cc3F)c3cncc(OCC)n23)C1` [Compound 197, (R)-4-(3-(1-acryloylpyrrolidin-3-yl)-5-ethoxyimidazo[1,5-a]pyrazin-1-yl)-3-fluoro-N-(4-(trifluoromethyl)pyridin-2-yl)benzamide] gave an IC50 (BTK [2]; read-out: BTK Inhibition) of under 10 nM.
`CC#CC(=O)N1CC[C@@H](c2nc(-c3ccc(C(=O)Nc4cc(C(F)(F)F)ccn4)cc3F)c3cncc(OCC)n23)C1` [Compound 198, (R)-4-(3-(1-(but-2-ynoyl)pyrrolidin-3-yl)-5-ethoxyimidazo[1,5-a]pyrazin-1-yl)-3-fluoro-N-(4-(trifluoromethyl)pyridin-2-yl)benzamide] was tested, and the IC50 (BTK [2]) was 10 to 100 nM.
With `CC#CC(=O)N1CCC[C@H]1c1nc(-c2ccc(C(=O)Nc3cc(C(F)(F)F)ccn3)cc2)c2cncc(OCC)n12` [Compound 203, (S)-4-(3-(1-(but-2-ynoyl)pyrrolidin-2-yl)-5-ethoxyimidazo[1,5-a]pyrazin-1-yl)-N-(4-(trifluoromethyl)pyridin-2-yl)benzamide] the IC50 (BTK [2]) was 100 to 1000 nM.
Work on `C=CC(=O)N1CCC[C@H]1c1nc(-c2ccc(C(=O)Nc3cc(C(F)(F)F)ccn3)cc2)c2cncc(OCC)n12` [Compound 204, (S)-4-(3-(1-acryloylpyrrolidin-2-yl)-5-ethoxyimidazo[1,5-a]pyrazin-1-yl)-N-(4-(trifluoromethyl)pyridin-2-yl)benzamide] yielded an IC50 (BTK [2]; read-out: BTK Inhibition) of under 10 nM.
